Laboratory results as given in patent publication US9221839B2, “C5-C6 oxacyclic-fused thiadiazine dioxide compounds as BACE inhibitors, compositions, and their use” (Merck Sharp & Dohme Corp., priority 2011, dated 2015).

Legend:
[1] = molecular target: purified human autoBACE-2 (Homo sapiens, UniProt Q9Y5Z0); assay: BACE-2 Assay (BACE-HTRF assay); type: biochemical; details: Ki calculated from IC50 using the Cheng-Prusoff equation; read-out: BACE2 Ki
Protocol: Following laser excitation of sample wells at 320 nm, the fluorescence signal at 620 nm is collected for 400 ms following a 50 μs delay on a RUBYstar HTRF plate reader (BMG Labtechnologies). Raw RFU data is normalized to maximum (1.0 nM BACE/DMSO) and minimum (no enzyme/DMSO)RFU values. […] The Ki values are calculated from the IC50 using the Cheng-Prusoff equation.

[2] = molecular target: soluble human BACE1 catalytic domain (Homo sapiens (Human), UniProt P56817); assay: BACE1 HTRF FRET Assay; type: biochemical; details: Ki calculated from IC50 using the Cheng-Prusoff equation
Chain of soluble human BACE1 catalytic domain (P56817 75-416): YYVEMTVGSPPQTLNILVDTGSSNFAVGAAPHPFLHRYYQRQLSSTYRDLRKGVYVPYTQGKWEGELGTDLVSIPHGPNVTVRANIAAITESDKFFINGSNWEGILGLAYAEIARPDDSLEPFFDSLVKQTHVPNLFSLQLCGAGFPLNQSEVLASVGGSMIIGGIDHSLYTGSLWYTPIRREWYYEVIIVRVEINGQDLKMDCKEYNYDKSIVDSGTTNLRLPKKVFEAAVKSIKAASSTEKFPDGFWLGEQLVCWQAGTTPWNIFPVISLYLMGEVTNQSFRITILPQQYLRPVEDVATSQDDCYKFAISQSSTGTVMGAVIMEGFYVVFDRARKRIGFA
Description: Na^+-Acetate pH 5.0; 1% Brij-35; Glycerol; Dimethyl Sulfoxide (DMSO); Recombinant human soluble BACE1 catalytic domain (>95% pure); APP Swedish mutant peptide substrate (QSY7-APP^swe-Eu): QSY7-[…]-Europium-amide.
A homogeneous time-resolved FRET assay can be used to determine IC50 values for inhibitors of the soluble human BACE1 catalytic domain. This assay monitors the increase of 620 nm fluorescence that resulted from BACE1 cleavage of an APPswedish APP^swe mutant peptide FRET substrate (QSY7-[…]-Europium-amide). This substrate contains an N-terminal QSY7 moiety that serves as a quencher of the C-terminal Europium fluorophore (620 nm Em). In the absence of enzyme activity, 620 nm fluorescence is low in the assay and increased linearly over 3 hours in the presence of uninhibited BACE1 enzyme Inhibition of BACE1 cleavage of the QSY7-APP^swe-Eu substrate by inhibitors is manifested as a suppression of 620 nm fluorescence.
Reactions are initiated by addition of 10 μl of 600 nM QSY7-APP^swe-Eu substrate (200 nM final) to give a final reaction volume of 30 μl in a 384 well Nunc HTRF plate. The reactions are incubated at 30° C. for 1.5 hours. The 620 nm fluorescence is then read on a Rubystar HTRF plate reader (BMG Labtechnologies) using a […] delay followed by a 400 millisecond acquisition time window. Inhibitor IC50 values are derived from non-linear regression analysis of concentration response curves.

Chain of purified human autoBACE-2 (Q9Y5Z0 63-518 limits assumed): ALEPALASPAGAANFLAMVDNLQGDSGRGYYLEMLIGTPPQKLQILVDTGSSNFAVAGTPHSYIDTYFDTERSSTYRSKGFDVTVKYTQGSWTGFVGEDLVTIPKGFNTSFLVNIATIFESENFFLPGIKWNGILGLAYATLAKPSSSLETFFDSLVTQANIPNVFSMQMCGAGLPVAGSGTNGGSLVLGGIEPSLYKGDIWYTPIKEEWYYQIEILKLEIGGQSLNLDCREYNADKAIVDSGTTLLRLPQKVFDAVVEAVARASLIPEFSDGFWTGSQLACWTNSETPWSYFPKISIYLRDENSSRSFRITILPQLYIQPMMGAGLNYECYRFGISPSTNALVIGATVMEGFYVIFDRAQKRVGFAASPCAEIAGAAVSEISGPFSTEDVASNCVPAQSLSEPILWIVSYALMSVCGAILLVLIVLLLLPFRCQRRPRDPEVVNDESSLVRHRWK

Structure (SMILES) | Ki [1] [nM] | Ki [2] [nM]
COc1ccc(C(=O)Nc2ccc(F)c([C@@]34COC[C@@H]3S(=O)(=O)N(C)C(=N)N4)c2)nc1 [Example 3a] | 476 | 872
CN1C(=N)NC2(c3ccccc3F)COCC2S1(=O)=O (centres unmarked) [Example 6f] | 4200 | 7850
CN1C(=N)N[C@@]2(c3cc(NC(=O)c4cnc(C(F)(F)F)cn4)ccc3F)COC[C@H]2S1(=O)=O [Example 6d] | 55 | 28.4
CN1C(=N)N[C@@]2(c3cc(NC(=O)c4ccc(F)cn4)ccc3F)COC[C@H]2S1(=O)=O [Example 1] | 1.9 | 13
CN1C(=N)N[C@@]2(c3cc(NC(=O)c4ccc(Cl)cn4)ccc3F)COC[C@H]2S1(=O)=O [Example 5] | 1.3 | 5.07
CN1C(=N)N[C@]2(c3cc(NC(=O)c4ccc(C(F)(F)F)cn4)ccc3F)COC[C@@H]2S1(=O)=O [Example 6a] | 473 | 354
COc1cnc(C(=O)Nc2ccc(F)c([C@]34COC[C@H]3S(=O)(=O)N(C)C(=N)N4)c2)cn1 [Example 4] | 48.4 | 54.1
CN1C(=N)N[C@@]2(c3cc(NC(=O)c4ccc(C(F)(F)F)cn4)ccc3F)COC[C@H]2S1(=O)=O [Example 6] | 19.5 | 9.79
COc1cnc(C(=O)Nc2ccc(F)c([C@]34COC[C@H]3S(=O)(=O)N(C)C(=N)N4)c2)c(F)c1 [Example 6e] | 6.9 | 15.8
CN1C(=N)N[C@]2(c3cc(NC(=O)c4ccc(Cl)cn4)ccc3F)COC[C@@H]2S1(=O)=O [Example 5a] | 55.2 | 197
COc1ccc(C(=O)Nc2ccc(F)c([C@]34COC[C@H]3S(=O)(=O)N(C)C(=N)N4)c2)nc1 [Example 3] | 8.2 | 18.2
CN1C(=N)N[C@]2(c3cc(NC(=O)c4ccc(F)cn4)ccc3F)COC[C@@H]2S1(=O)=O [Example 1a] | 491 | 3530
COc1cnc(C(=O)Nc2ccc(F)c([C@@]34COC[C@@H]3S(=O)(=O)N(C)C(=N)N4)c2)cn1 [Example 4a] | 1510 | 1330
